These results are taken from patent US10927111B2, “Inhibitors of RAF kinases” (Kinnate Biopharma Inc., priority 2019, dated 2021).

The structures appear in SMILES notation. Where two headings read alike, the source gives them in different places.

In the assay the target is human RAF1 (Homo sapiens (Human), UniProt P04049). The assay can be described thus: Protein kinase assay (radiometric 33P-ATP, MEK1 (K97R) substrate). The format is biochemical. The settings on record: read-out: RAF-1 IC50. The protocol: Protein kinase assay: Assay platform was used to measure kinase/inhibitor interactions as described previously (Anastassiadis et al., 2011). In brief, for each reaction, kinase and substrate were mixed in a buffer containing 20 mM HEPES (pH 7.5), 10 mM MgCl2, 1 mM EGTA, 0.02% Brij35, 0.02 mg/mL BSA, 0.1 mM Na3VO4, 2 mM DTT, and 1% DMSO. All compounds were solubilized in DMSO. Compounds were then added to each reaction mixture via acoustic dispense using an ECHO 550 nanoliter dispenser. For human RAF1 testing, human MEK1 (K97R) was used as a substrate at a concentration of 3 micromolar, with a final ATP concentration of 10 micromolar. For human BRAF testing, human MEK1 (K97R) was used as a substrate at 1 micromolar concentration, with a final ATP concentration of 25 micromolar. […] After a 20-min incubation, ATP (Sigma-Aldrich, St. Louis, Mo. 63178) and [g33P] ATP (specific activity 10 microCi/microliter) purchased at PerkinElmer (Boston, Mass., 02118 Cat #BLU 003H250UC) were added at a final total concentration of 10 mM. Reactions were carried out at room temperature for 2 hr and spotted onto P81 ionexchange cellulose chromatography paper (Reaction Biology). Filter paper was washed in 0.75% phosphoric acid to remove unincorporated ATP. The percent remaining kinase activity relative to a vehicle-containing (DMSO) kinase reaction was calculated for each kinase/inhibitor pair. IC50 values were calculated using Prism 5 (GraphPad).

Where [1] appears, read: human MEK1 (K97R) substrate 3 micromolar, ATP 10 micromolar, 10-dose IC50 mode.

Sequence of human RAF1 (P04049 whole entry): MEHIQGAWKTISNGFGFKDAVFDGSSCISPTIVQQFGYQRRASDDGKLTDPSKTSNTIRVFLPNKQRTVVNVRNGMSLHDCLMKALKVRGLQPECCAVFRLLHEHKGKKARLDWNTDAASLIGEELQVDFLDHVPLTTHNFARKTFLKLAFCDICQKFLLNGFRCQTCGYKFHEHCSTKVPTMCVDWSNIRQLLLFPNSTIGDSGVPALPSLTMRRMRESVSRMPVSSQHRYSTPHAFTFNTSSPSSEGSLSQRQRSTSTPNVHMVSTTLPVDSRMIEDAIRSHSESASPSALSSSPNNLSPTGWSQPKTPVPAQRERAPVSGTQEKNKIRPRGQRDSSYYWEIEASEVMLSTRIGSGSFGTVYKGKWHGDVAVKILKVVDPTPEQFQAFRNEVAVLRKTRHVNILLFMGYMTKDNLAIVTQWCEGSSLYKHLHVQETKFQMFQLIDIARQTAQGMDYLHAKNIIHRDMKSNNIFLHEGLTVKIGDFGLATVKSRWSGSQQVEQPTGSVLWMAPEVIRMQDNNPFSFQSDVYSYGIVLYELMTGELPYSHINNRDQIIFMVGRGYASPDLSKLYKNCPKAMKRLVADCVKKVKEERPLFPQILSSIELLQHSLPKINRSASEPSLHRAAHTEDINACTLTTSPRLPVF

Consider `CNc1ncc2cc(-c3cc(NC(=O)N4CC=C(C(F)(F)F)C4)ccc3C)c(C)nc2n1` [Example 16, N-(4-methyl-3-(7-methyl-2-(methylamino)pyrido[2,3-d]pyrimidin-6-yl)phenyl)-3-(trifluoromethyl)-2,5-dihydro-1H-pyrrole-1-carboxamide], for which the IC50 under setting [1] was at most 10 nM.
Same read-out and setting: then `Cc1ccc(NC(=O)c2ccnc(C(F)(F)F)c2)cc1-c1cc2cnc(NC3CC3)nc2nc1C` [Example 37, N-(3-(2-(cyclopropylamino)-7-methylpyrido[2,3-d]pyrimidin-6-yl)-4-methylphenyl)-2-(trifluoromethyl)isonicotinamide], with at most 10 nM.
In the case of `[2H]C([2H])([2H])Nc1ncc2cc(-c3cc(NC(=O)c4ccnc(C(F)(F)F)c4)ccc3C)c(C([2H])([2H])[2H])nc2n1` [Example 75, N-(4-methyl-3-(7-(methyl-d3)-2-((methyl-d3)amino)pyrido[2,3-d]pyrimidin-6-yl)phenyl)-2-(trifluoromethyl)isonicotinamide], the IC50 is at most 10 nM.
As to `CNc1ncc2cc(-c3cc(NC(=O)N4CCC5(CCC(F)(F)C5)C4)c(F)cc3C)c(C)nc2n1` (centres unmarked) [Example 15, 7,7-difluoro-N-(2-fluoro-4-methyl-5-(7-methyl-2-(methylamino)pyrido[2,3-d]pyrimidin-6-yl)phenyl)-2-azaspiro[4.4]nonane-2-carboxamide], the IC50 under setting [1] is at most 10 nM.
For `CNc1ncc2cc(-c3cc(NC(=O)c4cccc(C(F)(F)F)c4)ccc3C)c(C)nc2n1` [Example 29, N-(4-methyl-3-(7-methyl-2-(methylamino)pyrido[2,3-d]pyrimidin-6-yl)phenyl)-3-(trifluoromethyl)benzamide], the IC50 under setting [1] is at most 10 nM.
Same read-out and setting: the result for `Cc1ccc(NC(=O)c2ccnc(C(F)(F)F)c2)cc1-c1cc2cnc(N)nc2nc1C` [Example 48, N-(3-(2-amino-7-methylpyrido[2,3-d]pyrimidin-6-yl)-4-methylphenyl)-2-(trifluoromethyl)isonicotinamide] reads at most 10 nM; that for `CNc1ncc2cc(-c3cc(NC(=O)N4CC[C@@H](OC(F)(F)F)C4)ccc3C)c(C#N)nc2n1` [Example 78, (3R)—N-[3-[7-cyano-2-(methylamino)pyrido[2,3-d]pyrimidin-6-yl]-4-methylphenyl]-3-(trifluoromethoxy)pyrrolidine-1-carboxamide], at most 10 nM; that for `CNc1ncc2cc(-c3cc(NC(=O)N4CCO[C@H](C(F)(F)F)C4)c(F)cc3C)cnc2n1` [Example 61, (2S)-N-[2-fluoro-4-methyl-5-[2-(methylamino)pyrido[2,3-d]pyrimidin-6-yl]phenyl]-2-(trifluoromethyl)morpholine-4-carboxamide], at most 10 nM.
The same measure, in the same setting: the result for `CNc1ncc2cc(-c3cc(NC(=O)N4CC[C@@H](CC(F)(F)F)C4)ccc3C)c(C)nc2n1` [Example 20, (S)-N-(4-methyl-3-(7-methyl-2-(methylamino)pyrido[2,3-d]pyrimidin-6-yl)phenyl)-3-(2,2,2-trifluoroethyl)pyrrolidine-1-carboxamide] reads at most 10 nM; that for `CCOc1nc2nc(NC)ncc2cc1-c1cc(NC(=O)c2ccnc(C(F)(F)F)c2)ccc1C` [Example 69, N-[3-[7-ethoxy-2-(methylamino)pyrido[2,3-d]pyrimidin-6-yl]-4-methylphenyl]-2-(trifluoromethyl)pyridine-4-carboxamide], at most 10 nM; that for `CNc1ncc2cc(-c3cc(NC(=O)c4cc[n+]([O-])c(C(F)(F)F)c4)ccc3C)c(C)nc2n1` [Example 76, 4-([4-methyl-3-[7-methyl-2-(methylamino)pyrido[2,3-d]pyrimidin-6-yl]phenyl]carbamoyl)-2-(trifluoromethyl)pyridin-1-ium-1-olate], at most 10 nM.
Same read-out and setting: then `CNc1ncc2cc(-c3cc(NC(=O)N4CCC(C(F)(F)F)C4)ccc3C)c(C)nc2n1` (centres unmarked) [Example 14, N-(4-methyl-3-(7-methyl-2-(methylamino)pyrido[2,3-d]pyrimidin-6-yl)phenyl)-3-(trifluoromethyl)pyrrolidine-1-carboxamide], with at most 10 nM.
As to `Cc1ccc(NC(=O)c2ccnc(C(F)(F)F)c2)cc1-c1cc2cnc(NC3CCN(C)CC3)nc2nc1C` [Example 42, N-(4-methyl-3-(7-methyl-2-((1-methylpiperidin-4-yl)amino)pyrido[2,3-d]pyrimidin-6-yl)phenyl)-2-(trifluoromethyl)isonicotinamide], the IC50 under setting [1] is at most 10 nM.
In the case of `CNc1ncc2cc(-c3cc(NC(=O)N4CCO[C@H](C(C)(C)C)C4)c(F)cc3C)c(C)nc2n1` [Example 22, (R)-2-(tert-butyl)-N-(2-fluoro-4-methyl-5-(7-methyl-2-(methylamino)pyrido[2,3-d]pyrimidin-6-yl)phenyl)morpholine-4-carboxamide], the IC50 is at most 10 nM.
Take `CNc1ncc2cc(-c3cc(NC(=O)c4cc(C(F)(F)F)ccn4)ccc3C)c(C)nc2n1` [Example 27]: under setting [1], the IC50 is at most 10 nM.
For `CNc1ncc2cc(-c3cc(NC(=O)c4ccnc(C(F)(F)F)c4)ccc3C)c(OCCO)nc2n1` [Example 70, N-[3-[7-(2-hydroxyethoxy)-2-(methylamino)pyrido[2,3-d]pyrimidin-6-yl]-4-methylphenyl]-2-(trifluoromethyl)pyridine-4-carboxamide], under setting [1], the IC50 was at most 10 nM.
For `CNc1ncc2cc(-c3cc(NC(=O)N4CC[C@H](SC(F)(F)F)C4)ccc3C)c(C)nc2n1` [Example 5], the IC50 lay in the range of 10 to 100 nM.
Turning to `CNc1ncc2cc(-c3cc(NC(=O)N4CCC(C(F)(F)F)C4)ccc3C)cnc2n1` (stereo in doubt) [Example 54, (3R)—N-[4-methyl-3-[2-(methylamino)pyrido[2,3-d]pyrimidin-6-yl]phenyl]3(trifluoromethyl)pyrrolidine-1-carboxamide], under setting [1], the 50% inhibitory concentration (IC50) is at most 10 nM.
In the case of `[2H]C([2H])([2H])c1nc2nc(NC)ncc2cc1-c1cc(NC(=O)c2ccnc(C(F)(F)F)c2)ccc1C` [Example 74, N-(4-methyl-3-(7-(methyl-d3)-2-(methylamino)pyrido[2,3-d]pyrimidin-6-yl)phenyl)-2-(trifluoromethyl)isonicotinamide], the IC50 is at most 10 nM.
For `CCNc1ncc2cc(-c3cc(NC(=O)c4ccnc(C(F)(F)F)c4)ccc3C)c(C)nc2n1` [Example 35, N-(3-(2-(ethylamino)-7-methylpyrido[2,3-d]pyrimidin-6-yl)-4-methylphenyl)-2-(trifluoromethyl)isonicotinamide], the half-inhibitory concentration (IC50) under setting [1] was at most 10 nM.
On the same count and under the same terms, the result for `CNc1ncc2cc(-c3cc(NC(=O)c4cnnc(C(F)(F)F)c4)ccc3C)c(C)nc2n1` [Example 50, N-(4-methyl-3-(7-methyl-2-(methylamino)pyrido[2,3-d]pyrimidin-6-yl)phenyl)-6-(trifluoromethyl)pyridazine-4-carboxamide] reads at most 10 nM; that for `CNc1ncc2cc(-c3cc(NC(=O)c4ccnc(C(F)(F)F)c4Cl)ccc3C)c(C)nc2n1` [Example 33, 3-chloro-N-(4-methyl-3-(7-methyl-2-(methylamino)pyrido[2,3-d]pyrimidin-6-yl)phenyl)-2-(trifluoromethyl)isonicotinamide], at most 10 nM.
`CNc1ncc2cc(-c3cc(NC(=O)N4CCO[C@H](CC(F)(F)F)C4)c(F)cc3C)c(C)nc2n1` [Example 25, (R)-N-(2-fluoro-4-methyl-5-(7-methyl-2-(methylamino)pyrido[2,3-d]pyrimidin-6-yl)phenyl)-2-(2,2,2-trifluoroethyl)morpholine-4-carboxamide]: the IC50 was at most 10 nM.
